Measured values from US9233965B2, “3,4-dihydropyrrolo[1,2-A]pyrazine-2,8(1H)-dicarboxamide derivatives, preparation thereof and therapeutic use thereof for diseases involving casein kinase 1 epsilon and/or casein kinase 1 delta” (SANOFI, priority 2010, dated 2016).

Experiments:
[1] = target: casein kinase 1 epsilon (CK1 epsilon) (Homo sapiens (Human), UniProt P49674); test: Test A: inhibitory activity on CK1 epsilon, casein phosphorylation assay on ATP-33P filter plate; type: biochemical; conditions: IC50 values or IC50 ranges (result of several experiments), ATP 10 μM final
Sequence of casein kinase 1 epsilon (CK1 epsilon) (P49674 whole entry): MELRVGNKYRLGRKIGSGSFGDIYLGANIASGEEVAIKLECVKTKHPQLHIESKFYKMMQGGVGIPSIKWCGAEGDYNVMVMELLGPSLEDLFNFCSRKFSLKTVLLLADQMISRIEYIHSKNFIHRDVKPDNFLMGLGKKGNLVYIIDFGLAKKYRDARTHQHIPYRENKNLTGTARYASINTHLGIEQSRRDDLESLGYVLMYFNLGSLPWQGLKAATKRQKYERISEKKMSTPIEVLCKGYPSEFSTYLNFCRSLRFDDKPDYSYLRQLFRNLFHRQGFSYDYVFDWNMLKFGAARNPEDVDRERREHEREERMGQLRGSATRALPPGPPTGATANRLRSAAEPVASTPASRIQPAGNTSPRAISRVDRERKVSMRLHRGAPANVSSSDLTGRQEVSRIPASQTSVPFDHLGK
Description: The capacity of the compounds of the invention to inhibit the phosphorylation of casein by casein kinase 1 epsilon and/or delta may be evaluated according to the procedures described in document US 2005/0 131 012.
Test A: Inhibitory Activity on CK1 Epsilon Measured by Assay on an ATP-^33P Filter Plate
The effect of the compounds on inhibition of the phosphorylation of casein by the enzyme casein kinase 1 epsilon (CK1 epsilon) is measured, using a casein assay via filtration of ATP-^33P in vitro.
Casein kinase 1 epsilon (0.58 mg/ml) is obtained via fermentation and purification processes performed according to methods that are well known to those skilled in the art, or may also be obtained from Invitrogen Corporation™ (human CK1 epsilon).
The compounds are tested at five different concentrations so as to generate IC50 values, i.e. the concentration at which a compound is capable of inhibiting the enzymatic activity by 50%, or alternatively the percentage of inhibition at a concentration of 10 micromolar.
“U”-bottomed Falcon plates are prepared by placing 5 μL of solutions of the compounds according to the invention at concentrations of 10, 1, 0.1, 0.01 or 0.001 μM in different wells. The solutions of the compounds according to the invention at these various concentrations are prepared by diluting in a test buffer (Tris 50 mM pH 7.5, MgCl2 […], DTT 2 mM and EGTA 1 mM) a stock solution in DMSO at a concentration of 10 mM. Next, 5 μL of dephosphorylated casein are added to a final concentration of 0.2 μg/μL, 20 μL of CK1 epsilon to a final concentration of 3 ng/μL, and 20 μL of ATP-^33P to a final concentration of 0.02 μCi/μL mixed with cold ATP (10 μM final—approximately 2×10^6 CPM per well). The final total test volume per well is equal to 50 μL.
The “U”-bottomed Falcon® test plate mentioned above is vortexed, and then incubated at room temperature for 2 hours. After 2 hours the reaction is stopped by adding an ice-cold solution of 65 μL of cold ATP (2 mM) prepared in test buffer.
100 μL of the reaction mixture are then transferred from the “U”-bottomed Falcon® plate into Millipore® MAPH filter plates, preimpregnated with 25 μL of ice-cold 100% TCA.
The Millipore MAPH filter plates are agitated gently and are left to stand at room temperature for at least 30 minutes to precipitate the proteins.
After 30 minutes, the filter plates are sequentially washed and filtered with 2×150 μL of 20% TCA, 2×150 μL of 10% TCA and 2×150 μL of 5% TCA (6 washes in total per plate/900 μL per well).
The plates are left to dry overnight at room temperature. Next, 40 μL of Microscint-20 Packard® scintillation liquid are added per well and the plates are closed in a leaktight manner. The radiation emitted by each well is then measured for 2 minutes in a TopCount NXT Packard® scintillation counter, in which the values of CPM/well are measured.
The percentage inhibition of the capacity of the enzyme to phosphorylate the substrate (casein) is determined for each concentration of test compound. These inhibition data expressed as percentages are used to calculate the IC50 value for each compound compared with the controls.
The kinetic studies determined the KM value for ATP as being 21 μM in this test system.
Table 2 below gives the IC50 values or the IC50 inhibition ranges (result of several experiments) for the phosphorylation of Casein Kinase 1 Epsilon for a number of compounds according to the invention.

Row | Compound | IC50 [1] [nM] | melting point [°C]
1 | CC(C)(C)NC(=O)N1CCn2c(c(C(N)=O)c(-c3ccc(Oc4ccccc4)cc3)c2C2CC2)C1 [Compound 39, N^2-tert-butyl-6-cyclo-propyl-7-(4-phenoxyphenyl)-3,4-dihydropyrrolo[1,2-a]pyrazine-2,8(1H)-dicarboxamide] | 4 to 36 | 157 to 159
2 | NC(=O)c1c(-c2cccc(C(F)(F)F)c2)c(Cl)n2c1CN(C(=O)NC1CCOCC1)CC2 [Compound 96, 6-chloro-N^2-(tetrahydro-2H-pyran-4-yl)-7-[3-(trifluoromethyl)phenyl]-3,4-dihydropyrrolo[1,2-a]pyrazine-2,8(1H)-dicarboxamide] | 19 | 220 to 222
3 | COCC(C)(C)NC(=O)N1CCn2c(c(C(N)=O)c(-c3ccc(OC)cc3)c2C2CC2)C1 [Compound 57, 6-cyclo-propyl-N^2-(1-methoxy-2-methylpropan-2-yl)-7-(4-methoxyphenyl)-3,4-dihydropyrrolo[1,2-a]pyrazine-2,8(1H)-dicarboxamide] | 36 | 168 to 170
4 | CC(C)(C)NC(=O)N1CCn2c(c(C(N)=O)c(-c3ccc(F)cc3)c2C2CC2)C1 [Compound 47, N^2-tert-butyl-6-cyclo-propyl-7-(4-fluorophenyl)-3,4-dihydropyrrolo[1,2-a]pyrazine-2,8(1H)-dicarboxamide] | 45 to 146 | 220 to 223
5 | COc1ccc(-c2c(C(N)=O)c3n(c2C2CC2)CCN(C(=O)NC2(C4CC4)CC2)C3)cc1 [Compound 51, N^2-[1,1′-bi(cyclo-propyl)-1-yl]-6-cyclo-propyl-7-(4-methoxyphenyl)-3,4-dihydropyrrolo[1,2-a]pyrazine-2,8(1H)-dicarboxamide] | 40 | 175 to 177
6 | CC(C)(C)NC(=O)N1CCn2c(c(C(N)=O)c(-c3ccc(OCc4ccccc4)cc3)c2C2CC2)C1 [Compound 40, 7-[4-(benzyloxy)phenyl]-N^2-tert-butyl-6-cyclo-propyl-3,4-dihydropyrrolo[1,2-a]pyrazine-2,8(1H)-dicarboxamide] | 38 | 203 to 206
7 | NC(=O)c1c(-c2ccccc2)c(Cl)n2c1CN(C(=O)NCC(F)(F)F)CC2 [Compound 76, 6-chloro-7-phenyl-N^2-(2,2,2-trifluoroethyl)-3,4-dihydropyrrolo[1,2-a]pyrazine-2,8(1H)-dicarboxamide] | 10 to 27 | 210 to 213
8 | NC(=O)c1c(-c2cccc(OC(F)(F)F)c2)c(Cl)n2c1CN(C(=O)NC1CCOCC1)CC2 [Compound 97, 6-chloro-N^2-(tetrahydro-2H-pyran-4-yl)-7-[3-(trifluoromethoxy)phenyl]-3,4-dihydropyrrolo[1,2-a]pyrazine-2,8(1H)-dicarboxamide] | 122 | 203 to 205
9 | CC(C)(C)NC(=O)N1CCn2c(c(C(N)=O)c(-c3cccc(C(F)(F)F)c3)c2C2CC2)C1 [Compound 16, N^2-tert-butyl-6-cyclo-propyl-7-[3-(trifluoromethyl)phenyl]-3,4-dihydropyrrolo[1,2-a]pyrazine-2,8(1H)-dicarboxamide] | 19 to 57 | 
10 | COc1ccc(-c2c(C(N)=O)c3n(c2C2CC2)CCN(C(=O)NC2CC2)C3)cc1 [Compound 6, N^2-6-di-cyclo-propyl-7-(4-methoxyphenyl)-3,4-dihydropyrrolo[1,2-a]pyrazine-2,8(1H)-dicarboxamide] | 28 to 57 | 
11 | CC(C)c1ccc(-c2c(C(N)=O)c3n(c2C2CC2)CCN(C(=O)NC(C)(C)C)C3)cc1 [Compound 13, N^2-tert-butyl-6-cyclo-propyl-7-[4-(iso-propyl)phenyl]-3,4-dihydropyrrolo[1,2-a]pyrazine-2,8(1H)-dicarboxamide] | 450 to 1000 | 

Other lines, results leading:

Row | IC50 [1] [nM] | melting point [°C] | Compound
12 | 1 to 5 | 168 to 170 | COc1ccc(-c2c(C(N)=O)c3n(c2Cl)CCN(C(=O)NC(C)(C)C)C3)cc1 [Compound 64, N^2-tert-butyl-6-chloro-7-(4-methoxyphenyl)-3,4-dihydropyrrolo[1,2-a]pyrazine-2,8(1H)-dicarboxamide]
13 | 1 to 3 | 212 to 214 | NC(=O)c1c(-c2cccc(F)c2)c(Cl)n2c1CN(C(=O)NC1CCC(F)(F)CC1)CC2 [Compound 89, 6-chloro-N^2-(4,4-difluoro-cyclo-hexyl)-7-(3-fluorophenyl)-3,4-dihydropyrrolo[1,2-a]pyrazine-2,8(1H)-dicarboxamide]
14 | 1 to 11 | 205 to 207 | CC(C)(CO)CNC(=O)N1CCn2c(Cl)c(-c3cccc(F)c3)c(C(N)=O)c2C1 [Compound 73, 6-chloro-7-(3-fluorophenyl)-N^2-(3-hydroxy-2,2-dimethylpropyl)-3,4-dihydropyrrolo[1,2-a]pyrazine-2,8(1H)-dicarboxamide]
15 | 1 | > 217 | CC(C)(C)NC(=O)N1CCn2c(C#N)c(-c3cccc(F)c3)c(C(N)=O)c2C1 [Compound 105, 6-cyano-7-(3-fluorophenyl)-N^2-(tert-butyl)-3,4-dihydropyrrolo[1,2-a]pyrazine-2,8(1H)-dicarboxamide]
16 | < 1 | 184 to 189 | CC(C)(C)NC(=O)N1CCn2c(Br)c(-c3cccc(F)c3)c(C(N)=O)c2C1 [Compound 104, 6-bromo-7-(3-fluorophenyl)-N^2-tert-butyl-3,4-dihydropyrrolo[1,2-a]pyrazine-2,8(1H)-dicarboxamide]
17 | 1 to 8 | 196 to 197 | Cc1cccc(-c2c(C(N)=O)c3n(c2Cl)CCN(C(=O)NC(C)(C)C)C3)c1 [Compound 61, N^2-tert-butyl-6-chloro-7-(3-methylphenyl)-3,4-dihydropyrrolo[1,2-a]pyrazine-2,8(1H)-dicarboxamide]
18 | 2 to 4 | 251 to 253 | NC(=O)c1c(-c2cccc(F)c2)c(Cl)n2c1CN(C(=O)N[C@H]1CC[C@H](O)CC1)CC2 [Compound 83, trans-6-chloro-7-(3-fluorophenyl)-N^2-(4-hydroxy-cyclo-hexyl)-3,4-dihydropyrrolo[1,2-a]pyrazine-2,8(1H)-dicarboxamide]
19 | 9 | 232 to 234 | N#Cc1c(-c2cccc(F)c2)c(C(N)=O)c2n1CCN(C(=O)NC1CCOCC1)C2 [Compound 109, 6-cyano-7-(3-fluorophenyl)-N^2-(tetrahydro-2H-pyran-4-yl)-3,4-dihydropyrrolo[1,2-a]pyrazine-2,8(1H)-dicarboxamide]
20 | 3 | 190 to 193 | C[C@H](NC(=O)N1CCn2c(Cl)c(-c3cccc(F)c3)c(C(N)=O)c2C1)C(F)(F)F [Compound 78, 6-chloro-7-(3-fluorophenyl)-N^2-[(2S)-1,1,1-trifluoropropan-2-yl]-3,4-dihydropyrrolo[1,2-a]pyrazine-2,8(1H)-dicarboxamide]
21 | 1 to 4 | 183 to 187 | CC(C)(NC(=O)N1CCn2c(Cl)c(-c3cccc(F)c3)c(C(N)=O)c2C1)C(F)(F)F [Compound 79, 6-chloro-7-(3-fluorophenyl)-N^2-(1,1,1-trifluoro-2-methylpropan-2-yl)-3,4-dihydropyrrolo[1,2-a]pyrazine-2,8(1H)-dicarboxamide]
22 | 4 |  | CN(C)c1ccc(-c2c(C(N)=O)c3n(c2C2CC2)CCN(C(=O)NC(C)(C)C)C3)cc1 [Compound 28, N^2-tert-butyl-6-cyclo-propyl-7-[4-(dimethylamino)phenyl]-3,4-dihydropyrrolo[1,2-a]pyrazine-2,8(1H)-dicarboxamide]
23 | 2 to 16 |  | NC(=O)c1c(-c2cccc(F)c2)c(Cl)n2c1CN(C(=O)NCCCC(F)(F)F)CC2 [Compound 81, 6-chloro-7-(3-fluorophenyl)-N^2-(4,4,4-trifluorobutyl)-3,4-dihydropyrrolo[1,2-a]pyrazine-2,8(1H)-dicarboxamide]
